Results published in patent US12162888B2, “Carboxamides as ubiquitin-specific protease inhibitors” (Valo Early Discovery, Inc., priority 2018, dated 2024).

Each compound was assayed against T1, USP28 (His-tagged USP28-FL-mammalian) (Homo sapiens, UniProt Q96RU2) (assay: Ubiquitin-Rhodamine 110 Assay for USP28 Activity, Example A-1(a)). Settings: Ubiquitin-Rhodamine 110 biochemical assay, read-out: USP28 A-1(a) IC50 range.
T1 construct: Expression of USP28 (1-1077)-TEV-6*His (pTT5 vector) was carried out in Expi293f cells; made in house; host or cells: Expi293F cells (pTT5 vector)
T1 sequence (Q96RU2 1-1077): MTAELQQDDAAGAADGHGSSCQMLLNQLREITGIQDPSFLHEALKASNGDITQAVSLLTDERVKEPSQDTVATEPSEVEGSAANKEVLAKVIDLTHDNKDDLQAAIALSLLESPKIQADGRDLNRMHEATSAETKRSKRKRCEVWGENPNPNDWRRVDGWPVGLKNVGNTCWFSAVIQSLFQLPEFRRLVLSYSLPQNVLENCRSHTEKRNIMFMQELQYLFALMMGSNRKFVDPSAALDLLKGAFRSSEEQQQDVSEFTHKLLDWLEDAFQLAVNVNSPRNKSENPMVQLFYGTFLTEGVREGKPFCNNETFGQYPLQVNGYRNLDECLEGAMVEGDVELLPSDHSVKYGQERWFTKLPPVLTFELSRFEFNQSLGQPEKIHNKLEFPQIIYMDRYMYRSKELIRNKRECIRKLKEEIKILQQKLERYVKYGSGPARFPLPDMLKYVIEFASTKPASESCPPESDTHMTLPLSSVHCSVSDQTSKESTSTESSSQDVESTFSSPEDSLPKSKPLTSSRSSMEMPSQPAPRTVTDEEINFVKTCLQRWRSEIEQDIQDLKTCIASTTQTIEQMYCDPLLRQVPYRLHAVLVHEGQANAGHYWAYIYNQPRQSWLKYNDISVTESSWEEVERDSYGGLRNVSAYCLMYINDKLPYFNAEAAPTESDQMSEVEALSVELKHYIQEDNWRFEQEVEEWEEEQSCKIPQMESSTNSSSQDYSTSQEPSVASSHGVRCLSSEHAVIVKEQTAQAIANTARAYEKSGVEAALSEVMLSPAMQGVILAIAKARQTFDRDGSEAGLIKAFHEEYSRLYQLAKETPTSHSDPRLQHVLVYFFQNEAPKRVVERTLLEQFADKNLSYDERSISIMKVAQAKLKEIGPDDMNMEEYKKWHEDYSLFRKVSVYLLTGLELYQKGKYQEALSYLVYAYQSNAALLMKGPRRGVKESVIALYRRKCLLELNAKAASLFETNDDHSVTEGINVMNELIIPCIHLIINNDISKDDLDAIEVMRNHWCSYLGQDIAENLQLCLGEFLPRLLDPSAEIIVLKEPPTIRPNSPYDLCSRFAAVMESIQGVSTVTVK
Format: biochemical
Experimental: Example A-1(a): Biochemical Assay: Ubiquitin-Rhodamine 110 Assay for USP28 Activity
The assay was performed in a final volume of 9 μL in assay buffer containing 20 mM Tris-HCl (pH 8.0, (1M Tris-HCl, pH 8.0 solution; Corning 46-031-CM)), 3 mM BME (2-Mercaptoethanol; Sigma 63689-25ML-F), 0.03% BGG (0.22 μM filtered, Sigma, G7516-25G), and 0.01% Triton X-100 (Sigma, T9284-10L). Nanoliter quantities of 10-point, 3-fold serial dilution in DMSO was pre-dispensed into 1536 assay plates (Corning, #3724BC) for a final test concentration of 25 μM to 1.3 nM, top to lowest dose, respectively. Enzyme USP28, construct His-tagged USP28-FL-mammalian, (protein expression and purification procedure described below). Concentration and incubation times were optimized for the maximal signal-to-background while maintaining initial velocity conditions at a fixed substrate concentration. The final concentration of the enzyme in the assay was […]. Final substrate (Ub-Rh110; Ubiquitin-Rhodamine 110, UbiQ-126) concentration was 25 nM with [Ub-Rh110]<<Km. 3 μL of 2× enzyme was added to assay plates (pre-stamped with compound) preincubated with […] for 30 minutes and then 3 μL of 2× Ub-Rh110 was added to assay plates. Plates were incubated for 45 minutes at room temperature before addition of 3 μL of stop solution (final concentration of 10 mM citric acid (Sigma, 251275-500G)). Fluorescence was read on the Envision (Excitation at 485 nm and Emission at 535 nm; Perkin Elmer) or on the PheraSTAR (Excitation at 485 nm and Emission at 535 nm; BMG Labtech).
Procedure for the Protein expression and purification for construct His-tagged USP28-FL-mammalian
Expression of USP28 (1-1077)-TEV-6*His (pTT5 vector) was carried out in Expi293f cells (sequence derived from uniprot ID: Q96RU2-1). Cells were re-suspended in lysis buffer B 50 mM Bicine, pH 8.0, 20 mM NaCl, 5% glycerol, 0.1% CHAPS, 5 mM β-ME, 1 mM PMSF, 1 ug/ml Leupeptin, 1 ug/ml Pepstatin) and lysed by sonication. Insoluble material was removed by centrifugation and the supernatant was loaded onto a Ni-NTA column (GE Healthcare) equilibrated with Ni Buffer A (50 mM Bicine, pH 8.0, 20 mM NaCl, 5% glycerol, 0.1% CHAPS, 5 mM R-ME.) and washed with Ni Buffer A+20 mM imidazole until A280 reached baseline. The protein was eluted with Ni Buffer B (50 mM Bicine, pH 8.0, 20 mM NaCl, 5% glycerol, 0.1% CHAPS, 5 mM β-ME, 300 mM imidazole.). The protein was further purified using a Superdex™ 200 10/300 GL column (GE Healthcare) equilibrated with 50 mM Bicine, pH 8.0, 20 mM NaCl, 5% glycerol, 0.1% CHAPS, 5 mM β-ME. The protein was concentrated to 2.5 mg ml-1, flash-frozen in liquid N2 and stored at −80° C.
For assay formats Example A-1(a), A-1(b), and A-2, data were reported as percent inhibition compared with control wells based on the following equation: % inh=1−((FLU−AveLow)/(AveHigh−AveLow)) where FLU=measured Fluorescence, AveLow=average Fluorescence of no enzyme control (n=16), and AveHighh=average Fluorescence of DMSO control (n=16). IC50 values were determined by curve fitting of the standard 4 parameter logistic fitting algorithm included in the Activity Base software package: IDBS XE Designer Model 205. Data is fitted using the Levenburg Marquardt algorithm.

Row | SMILES | IC50 [nM]
1 | CN[C@H]1CN(c2ccc3c(n2)CC[C@H](NC(=O)c2sc4nc(C)cnc4c2N)C3)C[C@@H]1OC [Example 490, 7-amino-N-[(6S)-2-[(3S,4S)-3-methoxy-4-(methylamino)pyrrolidin-1-yl]-5,6,7,8-tetrahydroquinolin-6-yl]-3-methylthieno[2,3-b]pyrazine-6-carboxamide] | 50 to 200
2 | Cc1ccc2c(N)c(C(=O)N[C@H]3CCc4nc(N5C[C@H](N)[C@@]6(CCCCO6)C5)ccc4C3)sc2n1 [Example 508, 3-amino-N-[(6S)-2-[(4S,5R)-4-amino-6-oxa-2-azaspiro[4.5]decan-2-yl]-5,6,7,8-tetrahydroquinolin-6-yl]-6-methylthieno[2,3-b]pyridine-2-carboxamide] | 50 to 200
3 | Cc1ccc2c(N)c(C(=O)N[C@H]3CCc4nc(N5C[C@@H](N)[C@]6(C5)OCC[C@@H]6C)ccc4C3)sc2n1 [Example 511, 3-amino-N-[(6S)-2-[(4S,5S,9R)-9-amino-4-methyl-1-oxa-7-azaspiro[4.4]nonan-7-yl]-5,6,7,8-tetrahydroquinolin-6-yl]-6-methylthieno[2,3-b]pyridine-2-carboxamide] | 200 to 2000
4 | CO[C@H]1CCCN(c2ccc3c(n2)CC[C@H](NC(=O)c2sc4nc(C)ccc4c2N)C3)C[C@H]1N [Example 501, 3-amino-N-[(6S)-2-[(3R,4S)-3-amino-4-methoxyazepan-1-yl]-5,6,7,8-tetrahydroquinolin-6-yl]-6-methylthieno[2,3-b]pyridine-2-carboxamide] | 200 to 2000
5 | CO[C@H]1CN(c2ccc3c(n2)CC[C@H](NC(=O)c2sc4cnccc4c2N)C3)C[C@@H]1N [Example 504, 3-amino-N-[(6S)-2-[(3S,4S)-3-amino-4-methoxypyrrolidin-1-yl]-5,6,7,8-tetrahydroquinolin-6-yl]thieno[2,3-c]pyridine-2-carboxamide] | > 2000

Same assay, conditions: biochemical IC50 range, Ubiquitin-Rhodamine 110 assay, read-out: USP28 A-1(a)

Row | SMILES | IC50 [nM]
6 | CNc1ncc(C(=O)N[C@H]2COc3cc(N4CCNCC4)ccc3C2)c2c1CCCN2 [Example 677, 5-(methylamino)-N-[(3R)-7-(piperazin-1-yl)-3,4-dihydro-2H-1-benzopyran-3-yl]-1,2,3,4-tetrahydro-1,6-naphthyridine-8-carboxamide] | 200 to 2000
7 | CN[C@H]1CN(c2ccc3c(c2)OC[C@H](NC(=O)c2sc4nc(C)ccc4c2N)C3)C[C@H]1COC [Example 679, 3-amino-N-[(3R)-7-[(3R,4R)-3-(methoxymethyl)-4-(methylamino)pyrrolidin-1-yl]-3,4-dihydro-2H-1-benzopyran-3-yl]-6-methylthieno[2,3-b]pyridine-2-carboxamide] | 1 to 50
8 | Cc1ccc2c(N)c(C(=O)N[C@H]3COc4nc(N5C[C@@H](CF)[C@@H](N)C5)ccc4C3)sc2n1 [Example 539, 3-amino-N-[(3R)-7-[(3R,4R)-3-amino-4-(fluoromethyl)pyrrolidin-1-yl]-2H,3H,4H-pyrano[2,3-b]pyridin-3-yl]-6-methylthieno[2,3-b]pyridine-2-carboxamide] | 50 to 200
9 | CCn1cc(Cl)c2cc(C(=O)N[C@H]3COc4cc(N5C[C@H](OC)[C@@H](N)C5)ccc4C3)nnc21 [Example 696, N-[(3R)-7-[(3S,4S)-3-amino-4-methoxypyrrolidin-1-yl]-3,4-dihydro-2H-1-benzopyran-3-yl]-5-chloro-7-ethyl-7Hpyrrolo[2,3-c]pyridazine-3-carboxamide] | 200 to 2000
10 | Cc1ccc2c(N)c(C(=O)N[C@H]3COc4cc(N5CC[C@]6(CCCN6)C5)cc(F)c4C3)sc2n1 [Example 683, 3-amino-N-[(3R)-7-[(5R)-1,7-diazaspiro [4.4]nonan-7-yl]-5-fluoro-3,4-dihydro-2H-1-benzopyran-3-yl]-6-methylthieno [2,3-b]pyridine-2-carboxamide] | 1 to 50
11 | Cc1ccc2c(N)c(C(=O)N[C@H]3COc4cc(N5C[C@@H](N)[C@]6(CCCCO6)C5)ccc4C3)sc2n1 [Example 611-2, 3-amino-N-[(3R)-7-[(4R,5S)-4-amino-6-oxa-2-azaspiro[4.5]decan-2-yl]-3,4-dihydro-2H-1-benzopyran-3-yl]-6-methylthieno[2,3-b]pyridine-2-carboxamide] | 1 to 50
